# From ChEMBL document CHEMBL3994622, “Design and synthesis of new RAF kinase-inhibiting antiproliferative quinoline derivatives. Part 2: Diarylurea derivatives” (Eur J Med Chem, 2017)
# Columns and labels:
# Type in all cases: functional
# [1] = test system: KM12; experiment: Growth inhibition of human KM12 cells assessed as cell growth at 0.003 uM incubated for 48 hrs by sulforhodamine B assay relative to control; conditions: KM12, 48 h, read-out: Activity
# [2] = test system: MDA-MB-435; experiment: Growth inhibition of human MDA-MB-435 cells assessed as cell growth at 0.003 uM incubated for 48 hrs by sulforhodamine B assay relative to control; conditions: MDA-MB-435, 48 h, read-out: Activity
# [3] = test system: SN12C; experiment: Growth inhibition of human SN12C cells assessed as cell growth at 0.003 uM incubated for 48 hrs by sulforhodamine B assay relative to control; conditions: read-out: Activity
# [4] = test system: UO-31; experiment: Growth inhibition of human UO31 cells assessed as cell growth at 0.003 uM incubated for 48 hrs by sulforhodamine B assay relative to control; conditions: UO-31, 48 h, read-out: Activity
# [5] = test system: NCI-H522; experiment: Growth inhibition of human NCI-H522 cells assessed as cell growth at 0.03 uM incubated for 48 hrs by sulforhodamine B assay relative to control; conditions: NCI-H522, 48 h, read-out: Activity
# [6] = test system: SK-MEL-2; experiment: Growth inhibition of human SK-MEL-2 cells assessed as cell growth at 0.03 uM incubated for 48 hrs by sulforhodamine B assay relative to control; conditions: SK-MEL-2, 48 h, read-out: Activity
# [7] = test system: OVCAR-8; experiment: Growth inhibition of human OVCAR8 cells assessed as cell growth at 0.03 uM incubated for 48 hrs by sulforhodamine B assay relative to control; conditions: OVCAR-8, 48 h, read-out: Activity
# [8] = test system: Hs-578T; experiment: Growth inhibition of human Hs 578T cells assessed as cell growth at 0.03 uM incubated for 48 hrs by sulforhodamine B assay relative to control; conditions: read-out: Activity
# [9] = test system: K562; experiment: Growth inhibition of human K562 cells assessed as cell growth at 0.3 uM incubated for 48 hrs by sulforhodamine B assay relative to control; conditions: K562, 48 h, read-out: Activity
# [10] = test system: COLO 205; experiment: Growth inhibition of human COLO205 cells assessed as cell growth at 0.3 uM incubated for 48 hrs by sulforhodamine B assay relative to control; conditions: COLO 205, 48 h, read-out: Activity
# [11] = test system: HCT-15; experiment: Growth inhibition of human HCT15 cells assessed as cell growth at 0.3 uM incubated for 48 hrs by sulforhodamine B assay relative to control; conditions: HCT-15, 48 h, read-out: Activity
# [12] = test system: OVCAR-4; experiment: Growth inhibition of human OVCAR4 cells assessed as cell growth at 0.3 uM incubated for 48 hrs by sulforhodamine B assay relative to control; conditions: OVCAR-4, 48 h, read-out: Activity
# [13] = test system: RPMI-8226; experiment: Growth inhibition of human RPMI8226 cells assessed as cell growth at 3 uM incubated for 48 hrs by sulforhodamine B assay relative to control; conditions: RPMI-8226, 48 h, read-out: Activity
# [14] = test system: HCT-15; experiment: Growth inhibition of human HCT15 cells assessed as cell growth at 3 uM incubated for 48 hrs by sulforhodamine B assay relative to control; conditions: HCT-15, 48 h, read-out: Activity
# [15] = test system: UACC-257; experiment: Growth inhibition of human UACC257 cells assessed as cell growth at 3 uM incubated for 48 hrs by sulforhodamine B assay relative to control; conditions: UACC-257, 48 h, read-out: Activity
# [16] = test system: CAKI-1; experiment: Growth inhibition of human Caki1 cells assessed as cell growth at 3 uM incubated for 48 hrs by sulforhodamine B assay relative to control; conditions: CAKI-1, 48 h, read-out: Activity
# [17] = test system: Hs-578T; experiment: Growth inhibition of human Hs 578T cells assessed as cell growth at 3 uM incubated for 48 hrs by sulforhodamine B assay relative to control; conditions: read-out: Activity
# [18] = test system: CCRF-CEM; experiment: Growth inhibition of human CCRF-CEM cells assessed as cell growth at 30 uM incubated for 48 hrs by sulforhodamine B assay relative to control; conditions: read-out: Activity
# [19] = test system: RPMI-8226; experiment: Growth inhibition of human RPMI8226 cells assessed as cell growth at 30 uM incubated for 48 hrs by sulforhodamine B assay relative to control; conditions: RPMI-8226, 48 h, read-out: Activity
# [20] = test system: UACC-62; experiment: Growth inhibition of human UACC62 cells assessed as cell growth at 30 uM incubated for 48 hrs by sulforhodamine B assay relative to control; conditions: UACC-62, 48 h, read-out: Activity
# [21] = test system: A498; experiment: Growth inhibition of human A498 cells assessed as cell growth at 30 uM incubated for 48 hrs by sulforhodamine B assay relative to control; conditions: A498, 48 h, read-out: Activity
# [22] = test system: CCRF-CEM; experiment: Growth inhibition of human CCRF-CEM cells assessed as cell growth at 0.01 uM incubated for 48 hrs by sulforhodamine B assay relative to control; conditions: read-out: Activity
# [23] = test system: SK-MEL-5; experiment: Growth inhibition of human SK-MEL-5 cells assessed as cell growth at 0.01 uM incubated for 48 hrs by sulforhodamine B assay relative to control; conditions: SK-MEL-5, 48 h, read-out: Activity
# [24] = test system: OVCAR-8; experiment: Growth inhibition of human OVCAR8 cells assessed as cell growth at 0.01 uM incubated for 48 hrs by sulforhodamine B assay relative to control; conditions: OVCAR-8, 48 h, read-out: Activity
# [25] = test system: CAKI-1; experiment: Growth inhibition of human Caki1 cells assessed as cell growth at 0.01 uM incubated for 48 hrs by sulforhodamine B assay relative to control; conditions: CAKI-1, 48 h, read-out: Activity
# [26] = test system: EKVX; experiment: Growth inhibition of human EKVX cells assessed as cell growth at 0.1 uM incubated for 48 hrs by sulforhodamine B assay relative to control; conditions: read-out: Activity
# [27] = test system: SK-MEL-5; experiment: Growth inhibition of human SK-MEL-5 cells assessed as cell growth at 0.1 uM incubated for 48 hrs by sulforhodamine B assay relative to control; conditions: SK-MEL-5, 48 h, read-out: Activity
# [28] = test system: OVCAR-4; experiment: Growth inhibition of human OVCAR4 cells assessed as cell growth at 0.1 uM incubated for 48 hrs by sulforhodamine B assay relative to control; conditions: OVCAR-4, 48 h, read-out: Activity
# [29] = test system: NCI-H460; experiment: Growth inhibition of human NCI-H460 cells assessed as cell growth at 1 uM incubated for 48 hrs by sulforhodamine B assay relative to control; conditions: NCI-H460, 48 h, read-out: Activity
# [30] = test system: OVCAR-5; experiment: Growth inhibition of human OVCAR5 cells assessed as cell growth at 1 uM incubated for 48 hrs by sulforhodamine B assay relative to control; conditions: OVCAR-5, 48 h, read-out: Activity
# [31] = test system: NCI/ADR-RES; experiment: Growth inhibition of human NCI/ADR-RES cells assessed as cell growth at 1 uM incubated for 48 hrs by sulforhodamine B assay relative to control; conditions: read-out: Activity
# [32] = test system: RXF 393; experiment: Growth inhibition of human RXF393 cells assessed as cell growth at 1 uM incubated for 48 hrs by sulforhodamine B assay relative to control; conditions: RXF 393, 48 h, read-out: Activity
# [33] = test system: MDA-MB-231; experiment: Growth inhibition of human MDA-MB-231 cells assessed as cell growth at 1 uM incubated for 48 hrs by sulforhodamine B assay relative to control; conditions: MDA-MB-231, 48 h, read-out: Activity
# [34] = test system: ACHN; experiment: Growth inhibition of human ACHN cells assessed as cell growth at 100 uM incubated for 48 hrs by sulforhodamine B assay relative to control; conditions: read-out: Activity
# [35] = test system: PC-3; experiment: Growth inhibition of human PC3 cells assessed as cell growth at 100 uM incubated for 48 hrs by sulforhodamine B assay relative to control; conditions: PC-3, 48 h, read-out: Activity
SMILES,growth at 0.003 µM [1] [%],growth at 0.003 µM [2] [%],growth at 0.003 µM [3] [%],growth at 0.003 µM [4] [%],growth at 0.03 µM [5] [%],growth at 0.03 µM [6] [%],growth at 0.03 µM [7] [%],growth at 0.03 µM [8] [%],growth at 0.3 µM [9] [%],growth at 0.3 µM [10] [%],growth at 0.3 µM [11] [%],growth at 0.3 µM [12] [%],growth at 3 µM [13] [%],growth at 3 µM [14] [%],growth at 3 µM [15] [%],growth at 3 µM [16] [%],growth at 3 µM [17] [%],growth at 30 µM [18] [%],growth at 30 µM [19] [%],growth at 30 µM [20] [%],also measured
COc1cc2cc(Oc3ccc(NC(=O)Nc4ccc(Cl)c(C(F)(F)F)c4)cc3)c(C)nc2cc1OC,100,98,98,87,93,97,94,109,93,102,91,94,-36,16,-13,-11,-15,-38,-47,-75,growth at 30 µM [21]: -98%
COc1cc2cc(Oc3ccc(NC(=O)Nc4ccc(Cl)c(Cl)c4)cc3)c(C)nc2cc1OC,–,–,–,–,–,–,–,–,–,–,–,–,–,–,–,–,–,–,–,–,growth at 0.01 µM [22]: 102%; growth at 0.01 µM [23]: 103%; growth at 0.01 µM [24]: 101%; growth at 0.01 µM [25]: 88%; growth at 0.1 µM [26]: 93%; growth at 0.1 µM [27]: 100%; growth at 0.1 µM [28]: 87%; growth at 1 µM [29]: 82%; growth at 1 µM [30]: 116%; growth at 1 µM [31]: 76%; growth at 1 µM [32]: 104%; growth at 1 µM [33]: 77%; growth at 100 µM [34]: -61%; growth at 100 µM [35]: -96%
Cc1nc2cc(O)c(O)cc2cc1Oc1ccc(NC(=O)Nc2ccc(Cl)c(Cl)c2)cc1,103,94,100,91,95,113,93,85,123,109,101,94,92,62,87,62,100,-16,-22,-78,growth at 30 µM [21]: 75%
COc1cc2cc(Oc3ccc(NC(=O)Nc4cc(C(F)(F)F)cc(C(F)(F)F)c4)cc3)c(C)nc2cc1OC,–,–,–,–,–,–,–,–,–,–,–,–,–,–,–,–,–,–,–,–,growth at 0.01 µM [22]: 97%; growth at 0.01 µM [23]: 100%; growth at 0.01 µM [24]: 111%; growth at 0.01 µM [25]: 88%; growth at 0.1 µM [26]: 89%; growth at 0.1 µM [27]: 101%; growth at 0.1 µM [28]: 83%; growth at 1 µM [29]: 49%; growth at 1 µM [30]: 93%; growth at 1 µM [31]: 62%; growth at 1 µM [32]: 93%; growth at 1 µM [33]: 55%; growth at 100 µM [34]: -89%; growth at 100 µM [35]: -57%
